Assay [1] relates to CAL-51. Kind of assay: normalised viability (% of control), CellTiter-Blue; higher = more viable cells (about 100 = DMSO control). The note with it: incubation time: 72 h. The procedure: (§1)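 DSRT, CellTiter-Blue viability, 72 h incubation. Signal is normalised to DMSO and benzethonium chloride controls. Value is the normalised response at dose 8.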
Assay [2] has as its system DU-4475. The assay is described as above. The note with it: incubation time: 72 h. As to the method:
as §1

For assay [3], the system named is MDA-MB-453. The description is as above. The following applies: incubation time: 72 h. The procedure: as §1
Assay [4] concerns HDQ-P1. The assay is described as above. The note with it: incubation time: 72 h. As to the method:
as §1

The test system of another assay is CAL-148. The description is as above. The following applies: incubation time: 72 h. The procedure: as §1
Assay [5] deals with CAL-85-1. Described as above. The note with it: incubation time: 72 h. As to the method: as §1
Assay [6] has as its system MDA-MB-468. The assay is described as above. The note with it: incubation time: 72 h. The procedure:
(§2)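 DSRT, CellTiter-Blue viability, 72 h incubation. Signal is normalised to DMSO and benzethonium chloride controls. Value is the normalised response at dose 3.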

Assay [7] has as its system DU-4475. Described as above. The following applies: incubation time: 72 h. The procedure: as §2
The source holds these as a separate data set.

Assay [8] relates to Hs578T. The assay is described as above. The note with it: incubation time: 72 h. As to the method:
as §2

The subject of assay [9] is MDA-MB-231. Described as above. The note with it: incubation time: 72 h. The procedure: as §2
The test system of a further assay is HCC1143. The assay is described as above. The note with it: incubation time: 72 h. The procedure: as §2
Assay [10] concerns SK-BR-3. The description is as above. The following applies: incubation time: 72 h. As to the method: as §2
The test system of assay [11] is CAL-120. The description is as above. The note with it: incubation time: 72 h. As to the method:
as §2

Assay [12] has as its system BT-549. The description is as above. The note with it: incubation time: 72 h. The procedure: as §2
Assay [13] concerns CAL-85-1. Described as above. The note with it: incubation time: 72 h. As to the method:
as §2
This is another data set of the same source.

Assay [14] deals with BT-474. The description is as above. The note with it: incubation time: 72 h. The procedure: as §2
Assay [15] relates to MDA-MB-468. The experiment in a line: drug sensitivity score (DSS), CellTiter-Glo (DSS (AUC-based score)); higher = stronger drug effect (viability inhibition or cytotoxicity); extreme values may be limits of the assay. The following applies: incubation time: 72 h. The method in brief: (§3)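 Breast cancer cell lines were seeded in 20 µl suspension into 384-well plates already holding compound and incubated for 72 h. Each compound was tested at 5 concentrations in 10-fold steps across its own 10,000-fold range. Plates were normalised to 0.1 % DMSO and a positive kill control after CellTox Green and then CellTiter-Glo readings. The area under the fitted dose-response curve served as the basis for the drug sensitivity score.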
(In ATP-based viability assays light output follows the ATP content of the culture.)

The test system of assay [16] is Hs578T. The description is as above. The note with it: incubation time: 72 h. The essentials: as §3
Assay [17] concerns HDQ-P1. The description is as above. The note with it: incubation time: 72 h. The essentials:
as §3

Assay [18] concerns MDA-MB-453. The note with it: 72 h. The essentials: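 Compound dissolved in 5 µl medium was placed in 384-well plates before 20 µl of breast cancer cell suspension was added, and the plates were incubated for 72 h. Cells then received 2.5 µl CellTiter-Blue for 2 h at 37 °C, and fluorescence was read at 560/590 nm. EC50 values come from percent-inhibition dose-response fits that were censored at the highest concentration, with plates normalised to vehicle and a positive kill control and rows with a zero drug sensitivity score excluded.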

Assay [19] has as its system CAL-51. The following applies: 72 h. The method in brief: (§4)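 Seeding of breast cancer cell lines (20 µl suspension) was done into 384-well plates pre-loaded with compound at 5 concentrations, 10-fold apart, covering a compound-specific 10,000-fold range. The plates were incubated for 72 h, read for CellTox Green fluorescence (485/520 nm), and then read for CellTiter-Glo luminescence after 10 min at room temperature. Every plate was normalised to 0.1 % DMSO and a positive kill control. Curve fitting gave the EC50, censored at the top concentration.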

For assay [20], the system named is MDA-MB-453. The note with it: 72 h. The essentials: as §4
This is another data set of the same source.

The subject of assay [21] is Hs578T. The note with it: 72 h. The method in brief: as §4
Another assay concerns MCF-10A. The following applies: 72 h. The method in brief: as §4
In assay [22] the test system is MDA-MB-231. The following applies: 72 h. The method in brief:
as §4

Assay [23] deals with CAL-120. The note with it: 72 h. The essentials:
as §4

Assay [24] relates to BT-549. The following applies: 72 h. The essentials:
as §4

The test system of assay [25] is CAL-85-1. The note with it: 72 h. The essentials:
as §4

For assay [26], the system named is MDA-MB-468. The following applies: 72 h. The method in brief: as §4
For assay [27], the system named is SK-BR-3. The following applies: 72 h. The essentials:
as §4

A further assay deals with HCC1937. The note with it: 72 h. The essentials:
as §4

A further assay deals with MDA-MB-436. The following applies: 72 h. The essentials:
as §4

The test system of assay [28] is BT-474. The note with it: 72 h. The method in brief: as §4

Several values for one entry are separate records, joined by “and”; a condition that tells them apart may be missing. Equal entries are not always repeated.

For the compound `Cc1cc2c(C(C)C)c(O)c(O)c(C=O)c2c(O)c1-c1c(C)cc2c(C(C)C)c(O)c(O)c(C=O)c2c1O` [Gossypol], the normalised viability stood at 3.25% in the assay with CAL-51 [1] (30000 nM); 4.25% in the assay on DU-4475 [2] (30000 nM); 5.68% in the assay with MDA-MB-453 [3] (30000 nM); 4.62% in the assay with HDQ-P1 [4] (30000 nM); 7.03% with CAL-148 (30000 nM); 5.42% with CAL-85-1 [5] (30000 nM). Moreover, the normalised viability worked out at 58.1% in the assay on MDA-MB-468 [6] (1000 nM); 99.7% in the assay with DU-4475 [7] (100 nM); 100% with Hs578T [8] (1000 nM); 93.6% in the assay on MDA-MB-231 [9] (1000 nM); 98.2% in the assay with HCC1143 (1000 nM); 92.9% in the assay with SK-BR-3 [10] (1000 nM). In addition, the normalised viability came out at 112% in the assay on CAL-120 [11] (1000 nM), 95% with BT-549 [12] (1000 nM), 97.3% in the assay on CAL-85-1 [13] (100 nM) and 113% in the assay on BT-474 [14] (1000 nM).
With `Cc1ccc(NC(=O)c2ccc(CN3CCN(C)CC3)cc2)cc1Nc1nccc(-c2cccnc2)n1` [Imatinib], the normalised viability in the assay on CAL-51 [1] (3000 nM) was 108% and 98.6%; in the assay on DU-4475 [2] (3000 nM) it was 112% and 116%; in the assay with MDA-MB-453 [3] (3000 nM) it was 86.2% and 83.6%; with HDQ-P1 [4] (3000 nM) it was 118% and 119%; with CAL-148 (3000 nM), 102% and 90.9%; with CAL-85-1 [5] (3000 nM), 96.1% and 95.3%. Also, the normalised viability with MDA-MB-468 [6] (100 nM) is 99.2% and 98%; with DU-4475 [7] (10 nM) it was 106% and 95.3%; in the assay with Hs578T [8] (100 nM), 95.2% and 103%; with HCC1143 (100 nM), 85.9% and 82.9%; in the assay on SK-BR-3 [10] (100 nM), 86.2% and 75.6%; in the assay with CAL-120 [11] (100 nM) it was 87.8% and 94.7%. Also, the normalised viability in the assay on BT-549 [12] (100 nM) is 102% and 109%; in the assay with CAL-85-1 [13] (10 nM), 102% and 92.3%; with BT-474 [14] (100 nM) it was 103% and 126%. Moreover, the drug sensitivity score in the assay on MDA-MB-468 [15], in the assay on Hs578T [16] and with HDQ-P1 [17] was 0 each time. Besides, in the assay on MDA-MB-453 [18], the “EC50, CellTiter-Blue viability” value came out at 4540 nM. The “EC50, CellTiter-Glo” value is 4170 nM with CAL-51 [19] and over 10000 nM with MDA-MB-453 [20].
As for `Nc1nc(OCc2cc(Br)cs2)c2[nH]cnc2n1` [Lomeguatrib], the drug sensitivity score in the assay with MDA-MB-468 [15], in the assay on Hs578T [16] and in the assay on HDQ-P1 [17] was 0 throughout.
Turning to `Cn1c(=O)n(-c2ccc(C(C)(C)C#N)cc2)c2c3cc(-c4cnc5ccccc5c4)ccc3ncc21` [NVP-BEZ235], the normalised viability in the assay on CAL-51 [1] (300 nM) was 12.4%; in the assay on DU-4475 [2] (300 nM), 15.8%; in the assay with MDA-MB-453 [3] (300 nM) it was 12.6%; with HDQ-P1 [4] (300 nM), 26.5%; in the assay with CAL-148 (300 nM) it was 10.7%; with CAL-85-1 [5] (300 nM), 29.5%. In addition, the normalised viability with MDA-MB-468 [6] (10 nM) was determined as 86.6%; in the assay on DU-4475 [7] (1 nM), 101%; in the assay on Hs578T [8] (10 nM), 56.7%; in the assay on MDA-MB-231 [9] (10 nM), 72.4%; with HCC1143 (10 nM) it was 70.9%; in the assay with SK-BR-3 [10] (10 nM), 88.4%. Besides, the normalised viability turned out to be 57.4% in the assay on CAL-120 [11] (10 nM), 68.2% with BT-549 [12] (10 nM), 110% with CAL-85-1 [13] (1 nM) and 91.6% in the assay on BT-474 [14] (10 nM). Also, in the assay on MDA-MB-453 [18], the “EC50, CellTiter-Blue viability” value was 8.31 nM.
On to `COc1ccccc1S(=O)(=O)Nc1ccc2c(c1)CN(C)C(=O)N2` [PFI-1], for which the values for the drug sensitivity score in the assay with MDA-MB-468 [15], in the assay on Hs578T [16] and in the assay with HDQ-P1 [17] were 0, 4.98 and 0, respectively. Also, the “EC50, CellTiter-Glo” value in the assay on CAL-51 [19] was found to be 6310 nM; in the assay with Hs578T [21], 1810 nM; in the assay with MCF-10A, 4160 nM; in the assay on MDA-MB-231 [22], 1610 nM; in the assay on MDA-MB-453 [20] it was 1980 nM; in the assay with CAL-120 [23] it was 2570 nM. The “EC50, CellTiter-Glo” value with BT-549 [24] worked out at 1350 nM; in the assay on CAL-85-1 [25], 8460 nM.
Turning to `NS(=O)(=O)OC[C@@H]1C[C@@H](n2ccc3c(N[C@H]4CCc5ccccc54)ncnc32)C[C@@H]1O` [Pevonedistat], the drug sensitivity score in the assay with MDA-MB-468 [15] was 17.8; in the assay on Hs578T [16], 5.18; in the assay with HDQ-P1 [17], 2.51. The “EC50, CellTiter-Glo” value in the assay on CAL-51 [19] came out at 91.2 nM; with MDA-MB-468 [26] it was 68.5 nM; in the assay on Hs578T [21] it was 679 nM; in the assay with MDA-MB-231 [22], 953 nM; with MDA-MB-453 [20], 780 nM; in the assay with SK-BR-3 [27], 25.7 nM. Further, the “EC50, CellTiter-Glo” value in the assay with CAL-120 [23] amounted to 448 nM; in the assay on HCC1937, 2940 nM; in the assay on BT-549 [24], 168 nM; with CAL-85-1 [25], 191 nM; in the assay with MDA-MB-436, 294 nM; with BT-474 [28], 769 nM.
Regarding `CNNCc1ccc(C(=O)NC(C)C)cc1` [Procarbazine], the normalised viability is 98.8% in the assay on CAL-51 [1] (3000 nM); 100% in the assay with DU-4475 [2] (3000 nM); 102% with MDA-MB-453 [3] (3000 nM); 127% in the assay with HDQ-P1 [4] (3000 nM); 101% with CAL-148 (3000 nM); 95.7% in the assay on CAL-85-1 [5] (3000 nM). The normalised viability in the assay on MDA-MB-468 [6] (100 nM) stood at 102%; in the assay with DU-4475 [7] (10 nM) it was 112%; in the assay on Hs578T [8] (100 nM), 104%; in the assay on MDA-MB-231 [9] (100 nM), 105%; in the assay with HCC1143 (100 nM), 98.7%; in the assay on SK-BR-3 [10] (100 nM) it was 92%. Moreover, the normalised viability worked out at 106% in the assay with CAL-120 [11] (100 nM), 111% in the assay on BT-549 [12] (100 nM), 97.8% with CAL-85-1 [13] (10 nM) and 114% with BT-474 [14] (100 nM). Besides, the drug sensitivity score in the assay with MDA-MB-468 [15], in the assay on Hs578T [16] and in the assay with HDQ-P1 [17] was 0 in each case.

The values above are taken from the supplement of paper PMC4862054.
